Assay results as given in patent US9119855B2, “Compositions and methods for treatment of the side-effects associated with administration of cancer chemotherapeutic agents” (Asymmetric Therapeutics, LLC, priority 2008, dated 2015).
Entries after “also recorded” stand apart in the source; their conditions may differ. Where two headings read alike, the source gives them in different places.

Assays:
[1] = Van Acker et al.; cited from earlier work
[2] = Van Acker et al.; cited from earlier work; remark: listed apart in the source
[3] = in vitro; type: cell-based; conditions: human
Description: The efficacy of certain compounds as protective agents when co-administered with 5-FU was tested in cell culture. […] The relative viability of the cells was determined after 120 hours.

[4] = test system: Caco-2 cells
Description: 5-FU was dissolved in water and added to media at 10 μM, the clinically-relevant dose. Media was changed every day with reapplication of 5-FU. After 72 hr, the cell viability was assessed and is expressed relative to a vehicle control (Caco-2, n=3).

[5] = test system: primary human skin cells
Description: The concentration of 5-FU was also 0.01 mM in these trials. […] The relative viability of the cells was determined after 48 hours (FIG. 7) or 72 hours (FIG. 8).

[6] = acidic / low pH, orotate not charged (Robinson et al.); cited from earlier work
[7] = test system: primary human epithelial cells of the gingiva (HEGP); experiment: Protection of primary gingival epithelial cells from 5-FU toxicity, 72 hours (FIG. 9); type: cell-based
Source text: GI columnar cells rely for growth predominantly on de novo pyrimidine synthesis from nutrients in the GI contents. Squamous cells of the oropharynx rely for growth predominantly on salvage of cell constituents of the overlying cells closer to the tissue surface.

## Nc1nc(O)nc2nc(O)[nH]c12 [2,8-dihydroxy adenine]
[1]
  solubility: poorly soluble
[2]
  renal toxicity: can cause renal stones

## O=c1[nH]cc(F)c(=O)[nH]1 [5-FU, 5-fluorouracil, reference compound]
[3]
  viability at 120 h, 0.01 mM: < 50%

## Nc1ncnc2nc[nH]c12 [adenine]
[4]
  cytoprotection against 10 μM 5-FU toxicity: progressively greater cytoprotection
[4]; adenine alone, vs 10 μM 5-FU
  excess of protective nucleobase required for quantitative protection: ~100 ×

## O=C(O)c1cc(=O)[nH]c(=O)[nH]1 [orotate]
[4]
  cytoprotection against 10 μM 5-FU toxicity: statistically insignificant cytoprotection
[4]; orotate 1.25 mM with adenine 0.0125 mM through 1.25 mM, 10 μM 5-FU (FIG. 5)
  effect of adding orotate on cytoprotection by adenine: did not initially attenuate 5-FU toxicity beyond the cytoprotection provided by adenine alone
[4]; still higher concentrations of orotate with adenine 2.5 mM (FIG. 6, Results 5, 6 vs 2)
  effect of adding orotate on cytoprotection by adenine: progressively greater abrogation of salvage
[5]
  impact on skin (squamous) cell response to 5-FU exposure: does not impact
[6]
  absorption into the systemic circulation: better absorbed; also recorded: absorbed at a higher rate

## O=c1cc[nH]c(=O)[nH]1 [uracil]
[4]; further addition of uracil 1.25 and 2.5 mM, 10 μM 5-FU, data not shown
  effect on cytoprotection by adenine 2.5 mM in combination with orotate 2.5 mM: reversal of the cytoprotection
[7]; FIG. 9, 72 hours
  efficacy and toxicity to primary gingival cells (HGEP): effective and non-toxic
[7]; excess of uracil together with 5-FU 10 μM
  prevention of 5-FU toxicity: prevented 5-FU toxicity
[7]; further addition of uracil at 1.25 mM to adenine and orotate 2.5 mM each (Result Y)
  protection against 5-FU toxicity: significant protection
[7]; further addition of uracil at 2.5 mM to adenine and orotate 2.5 mM each (Result Z)
  protection against 5-FU toxicity: even more significant protection
